Among the test systems are T-47D breast; UACC-257 melanoma; RXF 393 renal; SNB-19 CNS; OVCAR-4 ovarian; SK-OV-3 ovarian; NCI-H23 lung; NCI-H522 lung; MALME-3M melanoma; EKVX NSCLC; A498 renal; SN12C renal; HOP-62 NSCLC; K-562 leukemia; SF-295 CNS; UO-31 renal; MCF7 breast.
Common to all, as to assay: NCI-60 cell line screen, 48 h

SMILES strings stand for the structures.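 48-hour exposure; five concentrations; linearly interpolated endpoints. At the GI50, growth is halved. TGI marks complete inhibition of growth.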

Among the data in PubChem BioAssay (NCI) are TGI and GI50 values, retold here.

As for `COP(=O)(OC)/C(=C\c1cn(C(c2ccccc2)(c2ccccc2)c2ccccc2)cn1)NC(C)=O`, the TGI in the assay with T-47D breast was > 100 µM; with UACC-257 melanoma it was > 100 µM; in the assay with RXF 393 renal, 83.6 µM; in the assay on SNB-19 CNS it was > 100 µM; in the assay on OVCAR-4 ovarian, > 100 µM; with SK-OV-3 ovarian, > 100 µM. The TGI with NCI-H23 lung, with NCI-H522 lung, with MALME-3M melanoma, with EKVX NSCLC, in the assay on A498 renal and with SN12C renal was > 100 µM each time. In addition, the TGI in the assay with HOP-62 NSCLC, in the assay with K-562 leukemia, with SF-295 CNS, with UO-31 renal and in the assay with MCF7 breast was > 100 µM in each case.

As for `O=c1[nH]c2c(c(=O)[nH]1)SSC2`, the TGI in the assay on T-47D breast was 25.2 µM; in the assay on UACC-257 melanoma, 14.8 µM; in the assay on RXF 393 renal, 28.5 µM; in the assay on SNB-19 CNS, > 81.3 µM; with OVCAR-4 ovarian, 31.4 µM; with SK-OV-3 ovarian it was 50.9 µM. In addition, the TGI with NCI-H23 lung is 26.9 µM; with NCI-H522 lung it was 38.5 µM; with MALME-3M melanoma it was 10.1 µM; in the assay on EKVX NSCLC, > 81.4 µM; in the assay on A498 renal, 52 µM; in the assay on SN12C renal, 7.95 µM. Also, the TGI with HOP-62 NSCLC was 23.5 µM; in the assay on K-562 leukemia, 5.52 µM; in the assay with SF-295 CNS, 36.6 µM; with UO-31 renal, 24.2 µM; in the assay with MCF7 breast, > 54.3 µM.

Turning to `COc1ccc(N2C(=O)CC(c3c[nH]c4ncccc34)C2=O)cc1` (configuration not stated), the TGI with T-47D breast is 50.4 µM; in the assay with UACC-257 melanoma it was 38.5 µM; in the assay with RXF 393 renal it was 42.5 µM; in the assay on SNB-19 CNS, > 100 µM; in the assay on OVCAR-4 ovarian, 47 µM; in the assay with SK-OV-3 ovarian, > 100 µM. Moreover, the TGI with NCI-H23 lung is > 58.4 µM; in the assay with NCI-H522 lung, 24.2 µM; in the assay on MALME-3M melanoma it was 40.5 µM; with EKVX NSCLC, > 75.6 µM; in the assay on A498 renal, > 100 µM; in the assay with SN12C renal, 35.2 µM. Further, the TGI was > 100 µM with HOP-62 NSCLC; 24.9 µM in the assay with K-562 leukemia; > 100 µM with SF-295 CNS; > 100 µM in the assay on UO-31 renal; > 76.9 µM in the assay on MCF7 breast.

As for `CCOC(=O)C(=O)C(CCC(=O)c1ccc2ccccc2c1O)C(=O)OCC` (configuration not stated), the TGI in the assay with T-47D breast, in the assay on UACC-257 melanoma, with RXF 393 renal, in the assay on SNB-19 CNS, with OVCAR-4 ovarian and in the assay with SK-OV-3 ovarian was > 100 µM throughout. For the same molecule, the TGI with NCI-H23 lung, with NCI-H522 lung, in the assay on MALME-3M melanoma, in the assay with EKVX NSCLC, in the assay on A498 renal and in the assay with SN12C renal was > 100 µM throughout. Besides, the TGI with K-562 leukemia, with SF-295 CNS, in the assay on UO-31 renal and with MCF7 breast was > 100 µM each time.

With `C/C(=N\Nc1nc2ccccc2s1)c1cc(C)ncn1`, the TGI is > 100 µM in the assay on T-47D breast; > 27.2 µM in the assay on UACC-257 melanoma; 20 µM with RXF 393 renal; 61.5 µM in the assay on SNB-19 CNS; > 39.8 µM in the assay with OVCAR-4 ovarian; > 35.7 µM with SK-OV-3 ovarian. Also, the TGI in the assay on NCI-H23 lung was 15.7 µM; in the assay with NCI-H522 lung, 5.04 µM; in the assay with MALME-3M melanoma it was > 36.1 µM; in the assay on EKVX NSCLC, 17.1 µM; with A498 renal, > 100 µM; in the assay with SN12C renal, 15.1 µM. In addition, the TGI was 18.3 µM in the assay on HOP-62 NSCLC, 30.9 µM with SF-295 CNS, 3.84 µM in the assay on UO-31 renal and > 19.4 µM in the assay with MCF7 breast.

`CC1(C)[C@H]2Cc3cc(-c4cc5c(cn4)[C@@H]4C[C@H]([C@@H]5[C@@H]5c6cc(-c7cc8c(cn7)[C@@H]7C[C@H](C8)C7(C)C)ncc6[C@@H]6C[C@H]5C6(C)C)C4(C)C)ncc3[C@@H]1C2`: the TGI in the assay with T-47D breast, in the assay with UACC-257 melanoma, in the assay on RXF 393 renal, in the assay on SNB-19 CNS, with SK-OV-3 ovarian and in the assay on NCI-H23 lung was > 100 µM each time. Further, the TGI in the assay with NCI-H522 lung, in the assay on MALME-3M melanoma, in the assay with EKVX NSCLC, in the assay on A498 renal, in the assay on SN12C renal and in the assay with HOP-62 NSCLC was > 100 µM in each case. For the same molecule, the TGI with K-562 leukemia, in the assay with SF-295 CNS, in the assay on UO-31 renal and in the assay with MCF7 breast was > 100 µM throughout.

For `COc1cc(C(=O)Oc2c(C#N)sc3c2c(=O)n(-c2ccccc2)c(=S)n3-c2ccccc2)cc(OC)c1OC`, the TGI with T-47D breast was > 100 µM; in the assay on UACC-257 melanoma it was > 100 µM; in the assay on RXF 393 renal, 47.9 µM; in the assay with SNB-19 CNS, 72 µM; in the assay with OVCAR-4 ovarian, 80.9 µM; in the assay with SK-OV-3 ovarian, > 100 µM. Moreover, the TGI is 38.9 µM with NCI-H23 lung; 2.11 µM in the assay on NCI-H522 lung; 28 µM with MALME-3M melanoma; 42.2 µM in the assay with EKVX NSCLC; 19.6 µM in the assay on A498 renal; 32.3 µM in the assay with SN12C renal. Also, the TGI in the assay on HOP-62 NSCLC stood at 48.3 µM; with K-562 leukemia, 82.2 µM; with SF-295 CNS, 27.9 µM; in the assay on MCF7 breast it was 57.1 µM.

Take `COc1cc2c(cc1OC)C(=O)N(NC1=NCCN1)C2=O`: the TGI with T-47D breast, in the assay on UACC-257 melanoma, with RXF 393 renal, with SNB-19 CNS, in the assay on OVCAR-4 ovarian and in the assay on SK-OV-3 ovarian was > 100 µM each time. Further, the TGI with NCI-H23 lung, with NCI-H522 lung, with MALME-3M melanoma, in the assay with EKVX NSCLC, in the assay with A498 renal and in the assay on SN12C renal was > 100 µM in each case. Also, the TGI in the assay on HOP-62 NSCLC, in the assay with K-562 leukemia, in the assay on SF-295 CNS and in the assay on MCF7 breast was > 100 µM throughout.

Turning to `CC(=O)c1sc(=N)n(-c2c(C)cccc2C)c1C`, the TGI with T-47D breast, in the assay on RXF 393 renal, in the assay with SNB-19 CNS, with OVCAR-4 ovarian, with SK-OV-3 ovarian and with NCI-H23 lung was > 100 µM throughout. The TGI with NCI-H522 lung, in the assay with MALME-3M melanoma, in the assay on EKVX NSCLC, in the assay on A498 renal, in the assay on SN12C renal and with HOP-62 NSCLC was > 100 µM each time. Besides, the TGI with K-562 leukemia, in the assay on UO-31 renal and in the assay on MCF7 breast was > 100 µM each time.

`Cc1ccc2c(=O)cc(-c3sc4ccccc4c3C)[nH]c2n1`: the TGI in the assay with T-47D breast was 55.8 µM; in the assay with UACC-257 melanoma, > 100 µM; in the assay with RXF 393 renal, 53.1 µM; in the assay with SNB-19 CNS it was > 100 µM; in the assay with OVCAR-4 ovarian it was 54 µM; with SK-OV-3 ovarian it was 71.4 µM. The TGI is 48.1 µM in the assay with NCI-H23 lung; 42.3 µM in the assay with NCI-H522 lung; 41.6 µM in the assay with MALME-3M melanoma; 88.2 µM in the assay with EKVX NSCLC; > 100 µM in the assay with A498 renal; > 100 µM in the assay on SN12C renal. In addition, the TGI was 75.4 µM in the assay with HOP-62 NSCLC, > 100 µM with K-562 leukemia, 52.1 µM in the assay with SF-295 CNS and > 100 µM in the assay with MCF7 breast. The GI50 is 16.8 µM in the assay with RXF 393 renal and 19.7 µM with NCI-H23 lung.

As to `Cc1cc(-c2nc3cccc(F)c3s2)ccc1N`, the TGI with T-47D breast, with UACC-257 melanoma, in the assay with RXF 393 renal, with SNB-19 CNS, in the assay with OVCAR-4 ovarian and in the assay on SK-OV-3 ovarian was > 100 µM in each case. In addition, the TGI was > 100 µM in the assay with NCI-H522 lung; > 100 µM in the assay with MALME-3M melanoma; > 100 µM in the assay on EKVX NSCLC; > 100 µM with A498 renal; > 91.1 µM in the assay on SN12C renal; > 100 µM with HOP-62 NSCLC. The TGI in the assay on K-562 leukemia, in the assay on SF-295 CNS, with UO-31 renal and with MCF7 breast was > 100 µM in each case.

Take `O=C(NNC(=O)c1ccccc1O)c1ccc(O)cc1`: the TGI in the assay with T-47D breast, in the assay with UACC-257 melanoma, with RXF 393 renal, with SNB-19 CNS, in the assay on OVCAR-4 ovarian and in the assay with SK-OV-3 ovarian was > 100 µM in each case. Moreover, the TGI was 56.7 µM in the assay on NCI-H522 lung; > 100 µM in the assay with MALME-3M melanoma; > 100 µM with EKVX NSCLC; > 100 µM in the assay with A498 renal; > 100 µM with SN12C renal; > 100 µM in the assay on HOP-62 NSCLC. For the same molecule, the TGI in the assay with K-562 leukemia, in the assay on SF-295 CNS, with UO-31 renal and in the assay on MCF7 breast was > 100 µM each time.

Regarding `N#CCCN(CCN(CCC#N)C(=O)Nc1ccccc1)C(=O)Nc1ccccc1`, the TGI was > 100 µM in the assay on T-47D breast; > 100 µM in the assay on UACC-257 melanoma; 75.3 µM with RXF 393 renal; > 100 µM with SNB-19 CNS; > 100 µM with SK-OV-3 ovarian; > 100 µM in the assay with NCI-H23 lung. Also, the TGI in the assay on NCI-H522 lung is 98.4 µM; in the assay on MALME-3M melanoma, > 100 µM; in the assay with EKVX NSCLC it was > 100 µM; with A498 renal it was > 100 µM; in the assay on SN12C renal, > 100 µM; in the assay with HOP-62 NSCLC it was 55 µM. Also, the TGI in the assay on K-562 leukemia, in the assay on SF-295 CNS, in the assay with UO-31 renal and in the assay with MCF7 breast was > 100 µM throughout.
